One series concerns Bmi-1 protein. Nature of the series: Sandwich ELISA Assay (Bmi-1 protein level in HT-1080 cells). Type of series: cell-based. An outline of the steps: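 HT-1080 cells were treated with compounds (0.5% DMSO final) for 40-48 h at 37 °C. Lysates were assayed by sandwich ELISA: mouse anti-Bmi-1 capture, rabbit anti-Bmi-1 and HRP anti-rabbit detection, TMB read at OD450 (OD570 reference). Levels were quantified against a recombinant GST-Bmi-1 standard curve (125-8000 pg/mL).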

SMILES strings stand for the structures.

For `Cc1nn2c(=O)n(C)c(C)cc2c1-c1cc(N)nc(Nc2ccc(C(F)(F)F)cc2)n1` [Cpd 117, 3-(6-amino-2-{[4-(trifluoromethyl)phenyl]amino}pyrimidin-4-yl)-2,5,6-trimethylpyrazolo[1,5-c]pyrimidin-7(6H)-one], the melting point was in the range of 270 to 273 °C. This compound yielded a 50% effective concentration (EC50) with Bmi-1 protein of 100 to 3000 nM.
`Cc1nc2ccc(F)cc2n1-c1cc(N)nc(Nc2ccc(N(C)C)cc2)n1` [Cpd 136, N^2-[4-(dimethylamino)phenyl]-6-(6-fluoro-2-methyl-1H-benzimidazol-1-yl)pyrimidine-2,4-diamine]: the melting point fell in the range of 232 to 235 °C. Besides, in the series with Bmi-1 protein, the concentration giving a half-maximal response (EC50) lay within 1 to 10 nM.
The compound `Cc1cc2nc(C)n(-c3cc(N)nc(Nc4ccc(Cl)cc4)n3)c2cc1C` [Cpd 184, N^2-(4-chlorophenyl)-6-(2,5,6-trimethyl-1H-benzimidazol-1-yl)pyrimidine-2,4-diamine] gave a melting point of 111 to 112 °C. Also, the concentration for a half-maximal effect (EC50) in the series with Bmi-1 protein fell in the range of 100 to 3000 nM.
For `COc1ccc(Nc2nc(N)cc(-n3c(C)nc4ccccc43)n2)cn1` [Cpd 157, N^2-(6-methoxypyridin-3-yl)-6-(2-methyl-1H-benzimidazol-1-yl)pyrimidine-2,4-diamine], in that order: 104 to 106 °C and 10 to 100 nM.
The compound `Cc1nc2ccc(F)cc2n1-c1cc(N)nc(Nc2ccc(Cl)cc2)n1` [Cpd 135, N^2-(4-chlorophenyl)-6-(6-fluoro-2-methyl-1H-benzimidazol-1-yl)pyrimidine-2,4-diamine] registered a melting point of 149 to 151 °C. In addition, the EC50 in the series with Bmi-1 protein lay within 10 to 100 nM.
Regarding `CC(C)c1nc2ccccc2n1-c1cc(N)nc(Nc2ccc(C(F)(F)F)cc2)n1` [Cpd 74, 6-[2-(propan-2-yl)-1H-benzimidazol-1-yl]-N^2-[4-(trifluoromethyl)phenyl]pyrimidine-2,4-diamine], the melting point lay within 168 to 171 °C. The half-maximal effective concentration (EC50) in the series on Bmi-1 protein lay within 100 to 3000 nM.
As to `CCc1nc2ccccc2n1-c1cc(N)nc(Nc2ccc(OC)c(F)c2)n1` [Cpd 155, 6-(2-ethyl-1H-benzimidazol-1-yl)-N^2-(3-fluoro-4-methoxyphenyl)pyrimidine-2,4-diamine], the melting point fell in the range of 104 to 106 °C. For the same compound, the EC50 in the series with Bmi-1 protein was in the range of 1 to 10 nM.
Compound `COc1ccc(Nc2nc(N)cc(-c3c(C)noc3C)n2)cc1` [Cpd 189, 6-(3,5-dimethyl-1,2-oxazol-4-yl)-N^2-(4-methoxyphenyl)pyrimidine-2,4-diamine] registered a melting point of 89 to 91 °C. This compound also had an EC50 with Bmi-1 protein of 100 to 3000 nM.
As for `CCc1nc2ccc(F)cc2n1-c1cc(N)nc(Nc2cccc(OC)c2)n1` [Cpd 165, 6-(2-ethyl-6-fluoro-1H-benzimidazol-1-yl)-N^2-(3-methoxyphenyl)pyrimidine-2,4-diamine], the melting point fell in the range of 133 to 135 °C. This compound had a concentration giving a half-maximal response (EC50) in the series on Bmi-1 protein of 100 to 3000 nM.
`Nc1cc(-n2c(C3CC3)nc3ccc(F)cc32)nc(Nc2ccc(OC(F)F)cc2)n1` [Cpd 70, 6-(2-cyclopropyl-6-fluoro-1H-benzimidazol-1-yl)-N^2-[4-(difluoromethoxy)phenyl]pyrimidine-2,4-diamine] displayed a melting point of 177 to 179 °C. Further, the EC50 in the series with Bmi-1 protein lay within 10 to 100 nM.
`CCc1nc2ccccc2n1-c1cc(N)nc(Nc2ccc(OC)c(Cl)c2)n1` [Cpd 156, N^2-(3-chloro-4-methoxyphenyl)-6-(2-ethyl-1H-benzimidazol-1-yl)pyrimidine-2,4-diamine] had a melting point of 100 to 103 °C. The same compound showed a concentration giving a half-maximal response (EC50) in the series on Bmi-1 protein of 10 to 100 nM.
For `CCc1nc2ccc(F)cc2n1-c1cc(N)nc(Nc2ccc(C)cc2)n1` [Cpd 160, 6-(2-ethyl-6-fluoro-1H-benzimidazol-1-yl)-N^2-(4-methylphenyl)pyrimidine-2,4-diamine], in that order: 187 to 189 °C and 1 to 10 nM.
Turning to `CCc1nc2ccc(F)cc2n1-c1cc(N)nc(Nc2ccc(OC(F)F)cc2)n1` [Cpd 71, N^2-[4-(difluoromethoxy)phenyl]-6-(2-ethyl-6-fluoro-1H-benzimidazol-1-yl)pyrimidine-2,4-diamine], the melting point fell in the range of 171 to 173 °C. The EC50 in the series with Bmi-1 protein was in the range of 10 to 100 nM.
For the compound `COc1cccc(Nc2nc(N)cc(-n3c(C)nc4ccc(F)cc43)n2)c1` [Cpd 140, 6-(6-fluoro-2-methyl-1H-benzimidazol-1-yl)-N^2-(3-methoxyphenyl)pyrimidine-2,4-diamine], the melting point lay within 127 to 129 °C. The concentration giving a half-maximal response (EC50) with Bmi-1 protein is 100 to 3000 nM.
The compound `COc1ccn2nc(C3CC3)c(-c3cc(N)nc(Nc4ccc(C(F)(F)F)cc4)n3)c2c1` [Cpd 106, 6-(2-cyclopropyl-5-methoxypyrazolo[1,5-a]pyridin-3-yl)-N^2-[4-(trifluoromethyl)phenyl]pyrimidine-2,4-diamine] came in with a melting point of 172 to 174 °C. In the series on Bmi-1 protein, this compound showed a concentration giving a half-maximal response (EC50) of 100 to 3000 nM.
Turning to `CCc1nc2ccc(F)cc2n1-c1cc(N)nc(Nc2cccc(F)c2)n1` [Cpd 163, 6-(2-ethyl-6-fluoro-1H-benzimidazol-1-yl)-N^2-(3-fluorophenyl)pyrimidine-2,4-diamine], the melting point is 169 to 171 °C. The compound also showed an EC50 in the series on Bmi-1 protein of 100 to 3000 nM.
`CCc1nc2ccc(F)cc2n1-c1cc(N)nc(Nc2ccc(OC)cc2)n1` [Cpd 161, 6-(2-ethyl-6-fluoro-1H-benzimidazol-1-yl)-N^2-(4-methoxyphenyl)pyrimidine-2,4-diamine] returned a melting point of 166 to 168 °C. In the series with Bmi-1 protein, the EC50 is 1 to 10 nM.
For `COc1ccc(Nc2nc(N)cc(-n3c(C)nc4ccccc43)n2)cc1F` [Cpd 148, N^2-(3-fluoro-4-methoxyphenyl)-6-(2-methyl-1H-benzimidazol-1-yl)pyrimidine-2,4-diamine] the same measures were 186 to 187 °C and 1 to 10 nM.
For `Cc1nc2ccccc2n1-c1cc(N)nc(Nc2ccc3c(c2)OCO3)n1` [Cpd 130, N^2-(1,3-benzodioxol-5-yl)-6-(2-methyl-1H-benzimidazol-1-yl)pyrimidine-2,4-diamine] the same measures were 118 to 119 °C and 1 to 10 nM.
`Nc1cc(-n2c(C(F)F)nc3ccc(F)cc32)nc(Nc2ccc(C(F)(F)F)cc2)n1` [Cpd 33, 6-[2-(difluoromethyl)-6-fluoro-1H-benzimidazol-1-yl]-N^2-[4-(trifluoromethyl)phenyl]pyrimidine-2,4-diamine] showed a melting point of 201 to 203 °C. In the series with Bmi-1 protein, this compound returned a concentration for a half-maximal effect (EC50) of 10 to 100 nM.
`CCc1nc2ccccc2n1-c1cc(N)nc(Nc2ccc(OC)cc2)n1` [Cpd 151, 6-(2-ethyl-1H-benzimidazol-1-yl)-N^2-(4-methoxyphenyl)pyrimidine-2,4-diamine] had a melting point of 144 to 145 °C. The compound further came in with an EC50 in the series on Bmi-1 protein of 1 to 10 nM.
`Cc1nc2ccc(F)cn2c1-c1cc(N)nc(Nc2ccc(F)cc2)n1` [Cpd 169, 6-(6-fluoro-2-methylimidazo[1,2-a]pyridin-3-yl)-N^2-(4-fluorophenyl)pyrimidine-2,4-diamine] came in with a melting point of 250 to 253 °C. This compound had an EC50 in the series on Bmi-1 protein of 100 to 3000 nM.
`Nc1cc(-c2c(C3CC3)nn3ccccc23)nc(Nc2ccc(C(F)(F)F)cc2)n1` [Cpd 126, 6-(2-cyclopropylpyrazolo[1,5-a]pyridin-3-yl)-N^2-[4-(trifluoromethyl)phenyl]pyrimidine-2,4-diamine] came in with a melting point of 181 to 183 °C. The 50% effective concentration (EC50) in the series on Bmi-1 protein lay in the range of 100 to 3000 nM.
For `CCc1nc2ccc(F)cc2n1-c1cc(N)nc(Nc2ccc(Cl)c(F)c2)n1` [Cpd 175, N^2-(4-chloro-3-fluorophenyl)-6-(2-ethyl-6-fluoro-1H-benzimidazol-1-yl)pyrimidine-2,4-diamine] the same measures were 209 to 211 °C and 10 to 100 nM.
In the case of `CCc1nc2ccc(F)cc2n1-c1cc(N)nc(Nc2ccccc2)n1` [Cpd 159, 6-(2-ethyl-6-fluoro-1H-benzimidazol-1-yl)-N^2-phenylpyrimidine-2,4-diamine], the melting point lay within 160 to 162 °C. In the series with Bmi-1 protein, this compound returned an EC50 of 100 to 3000 nM.
In turn, `Nc1cc(-n2c(C3CC3)nc3cc(F)ccc32)nc(Nc2ccc(OC(F)F)cc2)n1` [Cpd 80, 6-(2-cyclopropyl-5-fluoro-1H-benzimidazol-1-yl)-N^2-[4-(difluoromethoxy)phenyl]pyrimidine-2,4-diamine] returned a melting point of 136 to 138 °C. In the series with Bmi-1 protein, this compound came in with an EC50 of 10 to 100 nM.
Turning to `Nc1cc(-n2c(C(F)F)nc3ccccc32)nc(Nc2ccc(OC(F)F)cc2)n1` [Cpd 88, N^2-[4-(difluoromethoxy)phenyl]-6-[2-(difluoromethyl)-1H-benzimidazol-1-yl]pyrimidine-2,4-diamine], the melting point fell in the range of 114 to 115 °C. The 50% effective concentration (EC50) in the series on Bmi-1 protein was 1 to 10 nM.
Consider `Cc1nc2ccc(F)cc2n1-c1cc(N)nc(Nc2cccc(F)c2)n1` [Cpd 138, 6-(6-fluoro-2-methyl-1H-benzimidazol-1-yl)-N^2-(3-fluorophenyl)pyrimidine-2,4-diamine], for which the melting point was 239 to 241 °C. In the series with Bmi-1 protein, this compound returned an EC50 of 100 to 3000 nM.
Consider `COc1ccc(Nc2nc(N)cc(-n3c(C)nc4cc(C)c(C)cc43)n2)cc1Cl` [Cpd 187, N^2-(3-chloro-4-methoxyphenyl)-6-(2,5,6-trimethyl-1H-benzimidazol-1-yl)pyrimidine-2,4-diamine], for which the melting point was 129 to 131 °C. This compound also had a concentration for a half-maximal effect (EC50) with Bmi-1 protein of 10 to 100 nM.
On to `CCc1nc2ccc(F)cc2n1-c1cc(N)nc(Nc2ccc(N(C)C)cc2)n1` [Cpd 162, N^2-[4-(dimethylamino)phenyl]-6-(2-ethyl-6-fluoro-1H-benzimidazol-1-yl)pyrimidine-2,4-diamine], for which the melting point was in the range of 230 to 232 °C. In the series on Bmi-1 protein, the EC50 lay within 10 to 100 nM.
In the case of `COc1ccc(Nc2nc(N)cc(-n3c(C)nc4cc(C)c(C)cc43)n2)cc1F` [Cpd 186, N^2-(3-fluoro-4-methoxyphenyl)-6-(2,5,6-trimethyl-1H-benzimidazol-1-yl)pyrimidine-2,4-diamine], the melting point lay in the range of 120 to 121 °C. The compound further yielded an EC50 in the series on Bmi-1 protein of 10 to 100 nM.

For the origin of these results see patent publication US10370371B2, “Substituted pyrimidine Bmi-1 inhibitors” (PTC Therapeutics, Inc., priority 2013, dated 2019).
